System: Human dermal papilla cells
Test: UVB stress protection of dermal papilla cells, cell viability by Neutral Red Uptake staining
Type: cell-based
Conditions: UVB 0.432 J/cm^2; Table 1
Protocol: Human dermal papilla cells were plated into a 96 well flat bottomed clear micro plate at a seeding density of 5000 cells per well. The 24 hour monolayer of cells was exposed to UVB dosages ranging from 0.0072 J/cm^2 to 1.0 J/cm^2 (stress signal) with or without sample (protective formulations) treatment. After exposure, the cells were incubated in a CO2 incubator for 48 hours and developed by NRU (Neutral Red Uptake) staining techniques to analyze cell viability. The absorbance due to viable cells is read at 492 nm in a micro plate reader.

## C[Se]CC[C@H](NC(=O)CC[C@H](N)C(=O)O)C(=O)O [γ-L-glutamyl-L-Selenomethionine]
  Protection of dermal papilla cells, UVB irradiation level 0.432 J/cm^2: No protection

Source: patent US9498423B2, “Synergistic selenopeptide formulations for the protection of dermal papilla cells” (Sami Labs Limited, priority 2012, dated 2016)
